Assay results taken from patent publication US10125104B2, “Carotenoid derivative, pharmaceutically acceptable salt thereof, or pharmaceutically acceptable ester or amide thereof” (Asta Pharmaceuticals Co., Ltd., priority 2014, dated 2018).
Each block holds one compound with its values, some of them ahead of it.

Key:
TNF-α = experiment: Test for anti-inflammation in rats (LPS intraperitoneally): blood plasma TNF-α by ELISA; assay type: in vivo, Wistar rats; details: for TNF-α concentration in blood plasma: 4 mg/kg LPS i.p., then sample i.p., blood after 9 hours
Procedure: (§1) Test for Anti-Inflammation in Rats
(§2) Six week-old Wistar rats (purchased from Sankyo Labo Service Corporation, 200-250 g body weight) were acclimatized for 1 week with free access to food under a 12/12-hr light-dark cycle. An aqueous solution of 4 mg/kg LPS (lipopolysaccharide, derived from Escherichia coli and manufactured by Wako Pure Chemical Industries, Ltd.) was injected intraperitoneally and then an aqueous solution of the sample was injected intraperitoneally. After 9 hours, the whole blood was collected from the ventral aorta and centrifuged for 10 minutes at 10,000 rpm, and the blood plasma was collected. The blood plasma TNF-α concentration was measured using a kit for measuring TNF-α (Rat TNF-alpha Quantikine ELISA Kit RTA00, manufactured by R&D Systems Inc.) and the blood plasma IL-1β concentration was measured using a kit for measuring IL-1β (Rat IL-1b/IL1F2 Quantikine ELISA Kit, manufactured by R&D Systems Inc.). The 3 to 4 animals per group were used. The blood plasma TNF-α concentration is shown in Table 46 and FIG. 3 and the blood plasma IL-1β concentration is shown in Table 46 and FIG. 4.

IL-1β = experiment: Test for anti-inflammation in rats (LPS intraperitoneally): blood plasma IL-1β by ELISA; assay type: in vivo, Wistar rats; details: for IL-1β concentration in blood plasma: 4 mg/kg LPS i.p., then sample i.p., blood after 9 hours
Procedure: as §1, §2

[1] = test system: IL-1β mRNA in RAW264.7 cells; experiment: Test for anti-inflammation in a cell: IL-1β mRNA by quantitative RT-PCR after LPS; assay type: cell-based, mouse; details: for suppression of IL-1β gene expression (in words): RAW264.7 cells, LPS; for IL-1β Gene expressivity: relative to the control, LPS 1 ng/mL, 2 hours
Procedure: Test for Anti-Inflammation in a Cell
These cells were cultured for 48 hours in 5% CO2 at 37° C. After the medium replacement, an aqueous solution of the sample was added to the medium and the cell was cultured for 24 hours. The medium was then replaced, LPS (1 ng/mL) was added thereto and the cell was cultured for 2 hours.
Then, the medium was removed and the RAW264.7 cells were washed with physiological phosphate buffer solution (PBS). This operation was performed 3 times. Then, Total RNA was extracted using RNeasy Mini Kit (QIAGEN Inc.), and the production amount of IL-1β mRNA which is an inflammatory cytokine, was measured by a quantitative RT-PCR method using PRISM 7000 (Applied Biosystem).

[2] = Test for confirmation of water solubility (distribution to water/methylene chloride); assay type: physicochemical
Procedure: Test for Confirmation of Water Solubility (Distribution to Water/Methylene Chloride)
To each of the samples (1 mg) in Table 43, water (5 mL) and methylene chloride (5 mL) were added and the mixture was shaken, which was called the group of Solution A. A 28% sodium methoxide/methanol solution (463 μL (2.33 mmol)) was dissolved in water (10 mL), and the aqueous solution (1 mL) was collected and dissolved in water (100 mL), which was called Solution B. To each of the group of Solution A, Solution B (1 mL) was added and shaken. The solution was left at room temperature, each of the aqueous layer and of the organic layer were measured by HPLC and the ratio of the compound in the aqueous layer was shown in Table 4.
HPLC conditions were as follows:
chromatograph (HITACHI LaChrom Elite D-2000), column (SHISEIDO CAPCELL PAK C18 (3 μm particle diameter, 4.6 mm×150 mm)), detection temperature (40° C.), detection wavelength (474 nm), flow rate (1.0 mL/min) and mobile phase set up (% A=0.025% TFA/water, % B=0.025% TFA/acetonitrile); 70% A/30% B (at the start), 50% B gradient until 2.5 minutes, 98% B gradient until 4.2 minutes and the ratio (98% B) maintained until 15 minutes. The ratio in the aqueous layer was calculated from the following equation. […]

[3] = digestive absorption; cited from earlier work
[4] = Test for oral absorption: blood plasma concentration of astaxanthin after oral gavage; assay type: in vivo, Wistar rat; details: compared to astaxanthin (free form) and the extract from Haematococcus algae
Procedure: Test for Oral Absorption in […]
Each of the compound in Example 8, astaxanthin (free form) and an extract from Haematococcus algae (AstaReal L10, manufactured by Fuji Chemical Industries Co., Ltd., oil containing 10% astaxanthin extracted from Haematococcus algae) was diluted with 33% dimethyl sulfoxide, 60% polyethylene glycol and 0.03% aqueous carboxymethyl cellulose solution and prepared to have a concentration of 5 mg/ml as a conversion to astaxanthin free form. The prepared sample was administered to a Wistar rat fasted one night (male, 9 to 13 weeks old, 250 to 300 g of body weight, 2 or 4 animals per group) by oral gavage in an amount of astaxanthin (50 mg) per 1 kg of body weight. Then, the blood was collected at the time points of 3 hours, 6 hours and 24 hours and the blood plasma was isolated. To the obtained blood plasma (0.1 ml), acetone in an amount of 6 folds and hexane in an amount of 50 folds were added, and the solution was stirred well and centrifuged to obtain a hexane layer. The hexane layer was dried under reduced pressure and dissolved in acetone (0.1 ml). The obtained acetone solution (0.05 mL) was analyzed by high performance liquid chromatography (HPLC) under the following conditions and the blood concentration was measured. […]

[5] = compared to astaxanthin and disodium disuccinate astaxanthin

Compound: CC1=C(/C=C/C(C)=C/C=C/C(C)=C/C=C/C=C(C)/C=C/C=C(C)/C=C/C2=C(C)C(=O)C(OC(=O)CCC(=O)O)CC2(C)C)C(C)(C)CC(OC(=O)CCC(=O)O)C1=O (stereo not drawn) [Disodium Disuccinate Astaxanthin (DDA), Disodium Disuccinate Astaxanthin, reference compound]
TNF-α concentration in blood plasma (TNF-α): 99.6 ± 99.9 pg/mL | IL-1β concentration in blood plasma (IL-1β): 311.7 ± 269.1 pg/mL

Compound: CC(C=CC=C(C)C=CC1=C(C)C(=O)C(OC(=O)CNC(=O)NCCCC(=O)O)CC1(C)C)=CC=CC=C(C)C=CC=C(C)C=CC1=C(C)C(=O)C(OC(=O)CNC(=O)NCCCC(=O)O)CC1(C)C.NCCCC[C@H](N)C(=O)O.NCCCC[C@H](N)C(=O)O (stereo not drawn) [Example (23), 4-(3-{4-[18-(4-[3-(3-carboxypropyl)ureidoacetoxy]-2,6,6-trimethyl-3-oxocyclohexa-1-enyl)-3,7,12,16-tetramethyloctadeca-1,3,5,7,9,11,13,15,17-nonaenyl]-3,5,5-trimethyl-2-oxocyclohexa-3-enyloxycarbonylmethyl}-ureido)butyric acid dilysine salt]
suppression of IL-1β gene expression (in words) [1]: suppressed IL-1β gene expression superiorly to astaxanthin | IL-1β Gene expressivity ([1]; sample concentration 5 μM): 0.88 | TNF-α concentration in blood plasma (TNF-α): 81.8 ± 83.5 pg/mL | suppression of generation of TNF-α (in words) (TNF-α; [5]): suppressed generation of TNF-α and of IL-1β more effectively | IL-1β concentration in blood plasma (IL-1β): 146.3 ± 98.0 pg/mL | suppression of generation of IL-1β (in words) (IL-1β; [5]): suppressed generation of TNF-α and of IL-1β more effectively

Ratio of aqueous layer ([2]; 1 mg sample in water 5 mL / methylene chloride 5 mL plus dilute sodium methoxide solution, HPLC peak areas, 474 nm): 43.8%
Compound: CC(C=CC=C(C)C=CC1=C(C)C(=O)C(OC(=O)CCC(=O)O)CC1(C)C)=CC=CC=C(C)C=CC=C(C)C=CC1=C(C)C(=O)C(OC(=O)CCC(=O)O)CC1(C)C (stereo not drawn) [Astaxanthin disuccinate ester, astaxanthin disuccinic acid ester]

water solubility (in words) [2]: extremely low solubility in water
Compound: CC(C=CC=C(C)C=CC1=C(C)C(=O)C(O)CC1(C)C)=CC=CC=C(C)C=CC=C(C)C=CC1=C(C)C(=O)C(O)CC1(C)C (stereo not drawn) [Astaxanthin, 6-hydroxy-3-(18-[4-hydroxy-2,6,6-trimethyl-3-oxo-1-cyclohexenyl]-3,7,12,16-tetramethyloctadeca-1,3,5,7,9,11,13,15,17-nonaenyl)-2,4,4-trimethyl-2-cyclohexen-1-one, reference compound]
IL-1β Gene expressivity ([1]; sample concentration 5 μM): 1.00 | IL-1β Gene expressivity ([1]; sample concentration 25 μM): 0.96 | IL-1β Gene expressivity ([1]; sample concentration 50 μM): 0.77 | TNF-α concentration in blood plasma (TNF-α): 112.0 ± 35.6 pg/mL | IL-1β concentration in blood plasma (IL-1β): 203.9 ± 165.3 pg/mL | biological availability [3]: around several percent

Compound: CC(C=CC=C(C)C=CC1=C(C)C(=O)C(OC(=O)CNC(=O)NCCCC(=O)O)CC1(C)C)=CC=CC=C(C)C=CC=C(C)C=CC1=C(C)C(=O)C(OC(=O)CNC(=O)NCCCC(=O)O)CC1(C)C (stereo not drawn) [Example (8), 4-(3-{4-[18-(4-[3-(3-carboxylpropyl)ureidoacetoxy]-2,6,6-trimethyl-3-oxocyclohexa-1-enyl)-3,7,12,16-tetramethyloctadeca-1,3,5,7,9,11,13,15,17-nonaenyl]-3,5,5-trimethyl-2-oxocyclohexa-3-enyloxycarbonylmethyl}-ureido)butyric acid]
oral absorbability (in words) [4]: higher oral absorbability

Compound: CC(C=CC=C(C)C=CC1=C(C)C(=O)C(OC(=O)CNC(=O)NCCCC(=O)[O-])CC1(C)C)=CC=CC=C(C)C=CC=C(C)C=CC1=C(C)C(=O)C(OC(=O)CNC(=O)NCCCC(=O)[O-])CC1(C)C.[Na+].[Na+] (stereo not drawn) [Example (22), 4-(3-{4-[18-(4-[3-(3-carboxypropyl)ureidoacetoxy]-2,6,6-trimethyl-3-oxocyclohexa-1-enyl)-3,7,12,16-tetramethyloctadeca-1,3,5,7,9,11,13,15,17-nonaenyl]-3,5,5-trimethyl-2-oxocyclohexa-3-enyloxycarbonylmethyl}-ureido)butyric acid disodium salt]
suppression of IL-1β gene expression (in words) [1]: suppressed IL-1β gene expression superiorly to astaxanthin | IL-1β Gene expressivity ([1]; sample concentration 5 μM): 0.92 | IL-1β Gene expressivity ([1]; sample concentration 25 μM): 0.66 | IL-1β Gene expressivity ([1]; sample concentration 50 μM): 0.31
